The record followed here is patent US12546785B2, “IL-17F and IL-17A-specific capture agents, compositions, and methods of using and making” (Regeneron Pharmaceuticals, Inc., priority 2017, dated 2026).

Assay [1] concerns the target T1, His-tagged IL-17F Epitope1 (C48S) (Homo sapiens, UniProt Q96PD4).
T1 construct: made in house; host or cells: chemical peptide synthesis
As to the kind of experiment: Assay to determine orientation of macrocycle binding to IL-17F Epitope1 (point ELISA with His-tagged epitopes). Particulars: epitope 2 μM, unscrambled. The procedure:
(§1) Assay to determine orientation of macrocycle binding to IL-17F Epitope1. A black 96-well NeutrAvidin Coated High Binding Capacity plate (15510, Pierce) was coated with 2 μM macrocyclic peptide ligand in TBS (pH 7.6) for 2 h at room temperature. Biotinylated monoclonal anti-IL17F (TA319597, Origene) was coated at 4 μg/mL in TBS as a control. The plate was aspirated and then washed with TBS (5×) and Wash Buffer (0.05% (v/v) Tween-20 in PBS, 1×). Chemically synthesized His-tagged IL-17F epitopes were prepared at 2 μM in Wash Buffer and incubated in the designated microwells for 90 min at room temperature. Wash Buffer without epitope was added as a control. Microwells were aspirated and subsequently washed with Wash Buffer (10×). To detect the bound IL-17F epitopes, Alkaline Phosphatase (AP)-conjugated Anti-6X His tag® antibody [HIS-1] (ab49746, Abcam) was prepared at 1:10,000 dilution and added to the microwells for 1 h at room temperature. The plate was aspirated and washed with Wash Buffer (11×). AttoPhos® AP Fluorescent Substrate System (S1000, Promega) was employed to develop the microwells. Using an excitation wavelength of 430 nm, fluorescent emission at 535 nm was recorded by Beckman Coulter DTX880 photometer. Data are shown after subtraction of the no-epitope background.
(§2) For this experiment, the IL-17F Epitope1 was re-synthesized with a His6 assay handle and C48S substitution instead of a click handle. Two additional His-tagged IL-17F epitopes were synthesized to contain strategic scrambling of the sequences either N-terminal or C-terminal to C48S (scrambled residues are shown in italics): • 1) His6-PEG3-[…] (SEQ ID NO:39); • 2) His6-PEG3-[…] (scrambled C-terminal to click handle; SEQ ID NO:40); • 3) His6-PEG3-[…] (scrambled N-terminal to click handle; SEQ ID NO:41).
(§3) In anticipation of forming a biligand with LF2 (SEQ ID NO: 28), it was important to gain insight on whether LF1 (SEQ ID NO:9) preferentially binds to the N- or C-terminus of Epitope1. Therefore, two His-tagged IL-17F epitopes were generated, scrambling the sequence either N-terminal or C-terminal to the location of the azide click handle. His6 assay handle and C48S substitution instead of a click handle. The scrambled amino acids are shown in italics. MALDI-TOF MS (m/z): calculated for C116H163N37O31 (M+H) 2571.23; found 2571.57.
For orientation: An ELISA detects its analyte on a solid surface through an enzyme-linked reagent.

For assay [2], the system named is His-tagged IL-17F Epitope1 (C48S). Described as above. As for the experimental part:
as §1, §2, §3

In assay [3] the target is T2, IL-17F protein (Homo sapiens, UniProt Q96PD4).
T2 construct: His tag
T2 sequence (Q96PD4 31-163): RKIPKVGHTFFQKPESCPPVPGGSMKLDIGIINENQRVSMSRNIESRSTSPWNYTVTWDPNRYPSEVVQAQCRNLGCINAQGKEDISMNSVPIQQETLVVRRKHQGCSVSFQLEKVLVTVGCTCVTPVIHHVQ
As to the kind of experiment: Fluorescence polarization titration in solution. Type of assay: binding. The procedure:
The bonding affinities of the macrocycles were tested in solution by titrating the recombinant human IL-17F protein against fluorescein 5-isothiocyanate (5-FITC)-tagged macrocycles by fluorescence polarization. […] The structure of LA3 (SEQ ID NO:44), the lead macrocycle developed against IL-17A Epitope3, is shown below (X=PEG3-biotin). MALDI-TOF MS (m/z): calcd. for C62H98N22O13S (M+H) 1391.74; found 1392.36.
A general note: Polarisation of emitted light reports the rotation of a fluorescent probe.

For assay [4], the target named is T2, IL-17F protein. Kind of assay: IL-17F binding in a background of human serum, surface-immobilized ligand. The settings on record: up to 10% (v/v) serum. The text has this:
Binding to IL-17F in 25% (v/v) serum is also detectable.
Target binding in biologically complex samples was interrogated by contacting surface-immobilized macrocycles with IL-17F protein in a background of human serum.

For assay [5], the target named is T3, recombinant human IL-17A protein (Homo sapiens, UniProt Q16552).
T3 construct: His tag
T3 sequence (Q16552 24-155): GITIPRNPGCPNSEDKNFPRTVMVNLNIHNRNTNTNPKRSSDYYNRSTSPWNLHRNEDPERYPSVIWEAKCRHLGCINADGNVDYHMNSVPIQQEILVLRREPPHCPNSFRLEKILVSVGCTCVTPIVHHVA
Kind of assay: ELISA affinity against IL-17A. Type of assay: binding. The procedure:
The affinity of macrocycle LA3 (SEQ ID NO:44) against recombinant human IL-17A protein was determined by ELISA.

The target in assay [6] is Plasmodium falciparum Histidine Rich Protein-2 (Pf.HRP-2) (Plasmodium falciparum, UniProt P05227). Kind of assay: biochemical. In kind it is binding.

Numbered stars: 1 amine (or outer) side, 2 acyl side, 3 side chain; on linkers, the order of the positions; unused ones are H or OH. Bridge positions count the residues as written; N and C are the ends. Square brackets hold non-standard residues; d marks the D form. Triazole bridges read from a SMILES are 1,4-linked. Peptide text beside a SMILES is read from it. * marks the point of attachment. ξ: configuration not given here. Biotinyl(3aR,4R,6aS) = O=C1N[C@@H]2[C@@H](CS[C@@H]2CCCCC(=O)*)N1; X1 = O=C(CCCCC1SC[C@H]2NC(=O)N[C@@H]12)NCCCOCCOCCOCCCN*; Biotin = O=C1N[C@H]2[C@H](CS[C@H]2CCCCC(=O)*)N1; dLys(N3) = [N-]=[N+]=NCCCC[C@@H](N)C(=O)O; Lys(N3) = [N-]=[N+]=NCCCC[C@H](N)C(=O)O; Ethylenediamine = C(CN[*:2])N[*:1]; PEG5 = NCCOCCOCCOCCOCCOCCC(=O)O; Thr(3ξ) = CC(O)[C@H](N)C(=O)O; ξY = NC(Cc1ccc(O)cc1)C(=O)O; AEEEA = NCCOCCOCCOCC(=O)O; ξR = N=C(N)NCCCC(N)C(=O)O; Pra = C#CC[C@H](N)C(=O)O; ξPra = C#CCC(N)C(=O)O; ξK = NCCCCC(N)C(=O)O; PEG1 = NCCOCCC(=O)O

Consider `CC(O)[C@@H]1NC(=O)[C@H](C)NC(=O)[C@H](CCCNC(=N)N)NC(=O)[C@H](CCCNC(=N)N)NC(=O)[C@@H](N)Cc2cn(nn2)CCCC[C@@H](C(=O)NCCCOCCOCCOCCCNC(=O)CCCCC2SC[C@H]3NC(=O)N[C@@H]23)NC(=O)[C@H](CO)NC1=O` (stereo partly shown) [Cy(RRATSX1X2), Cy(RRATSX1X2)-PEG3-biotin] (H-[Pra]RRA[Thr(3ξ)]S[Lys(N3)]-X1; triazole 1-7), for which the “ELISA signal for His-tagged IL-17F Epitope1 (C48S)” value in assay [1] is “positive ELISA signals”. In assay [2] (epitope 2 μM), the “ELISA signal for epitope scrambled C-terminal to click handle” value is given as “positive ELISA signals” and the “binding to epitope scrambled N-terminal to click handle” value was “Binding was destroyed”. The “preferred binding region within IL-17F Epitope1” value in assay [2] (scrambled N- or C-terminus peptides) is reported as “preferentially bind to the N-terminal portion of Epitope1”. Further, binding in assay [3] (5-FITC-tagged macrocycles, in solution) was put at a Kd of 50 ± 15 nM. In addition, the “standard Gibbs free energy change (ΔG°=RTlnKD) of binding to IL-17F” value in assay [3] (25° C.) is -9.9 kcal/mol. For the same compound, the “IL-17F binding efficiency in human serum” value in assay [4] is given as “no reduction in IL-17F binding efficiency”.
As to `CC(C)C[C@H]1NC(=O)[C@@H](CCCNC(=N)N)NC(=O)[C@@H](Cc2ccccc2)NC(=O)[C@@H](Cc2c[nH]cn2)NC(=O)[C@@H](CCCNC(=N)N)NC(=O)[C@@H](NC(=O)COCCOCCOCCNC(=O)CCCC[C@@H]2SC[C@@H]3NC(=O)N[C@@H]32)Cc2cn(nn2)CCCC[C@@H](C(N)=O)NC1=O` [LA3] ({Biotin-AEEEA}-[Pra][dR][dH][dF][dR][dL][Lys(N3)]-NH2; triazole 1-7), in assay [5], the half-maximal effective concentration (EC50) came to 4.5 ± 0.4 nM.
As to `CC(C)C[C@@H]1NC(=O)[C@H](CC(=O)O)NC(=O)[C@H](C(C)C)NC(=O)[C@H](CC(N)=O)NC(=O)[C@H](Cc2c[nH]c3ccccc23)NC(=O)CNC(=O)[C@](C)(NC(=O)[C@@H](N)CCCNC(=N)N)CCCCCC/C=C/CCC[C@@](C)(C(=O)N[C@@H](CCCCNC(=O)CCCC[C@@H]2SC[C@@H]3NC(=O)N[C@@H]32)C(=O)N[C@@H](CNC(=O)Cn2nncc2C[C@H](N)C(=O)N2CCC[C@@H]2C(=O)NCC(=O)N[C@H](CC(C)C)C(=O)N[C@H](CC(C)C)C(=O)N[C@H]2Cc3cn(nn3)CCCC[C@@H](C(N)=O)NC(=O)[C@H](CCCNC(=N)N)NC(=O)[C@H](Cc3ccc(O)cc3)NC(=O)[C@H](Cc3ccc(O)cc3)NC(=O)[C@H](CCCCN)NC(=O)[C@H](Cc3ccc(O)cc3)NC2=O)C(N)=O)NC1=O` [cy(YKYYR)-linker-cy(GWNVDL)], the “improvement over the better of the two ligand components” value in assay [6] (Pf.HRP-2) was found to be 100 fold.
`N=C(N)NCCCC1NC(=O)[C@@H](Cc2ccc(O)cc2)NC(=O)[C@@H](Cc2ccc(O)cc2)NC(=O)C(CCCCN)NC(=O)C(Cc2ccc(O)cc2)NC(=O)C(N)Cc2cn(nn2)CCCC[C@H](C(=O)NCCOCCC(=O)NC2Cc3cn(nn3)CCCC[C@H](C(=O)NCCOCCOCCOCCOCCOCCC(=O)NCCNC(=O)CCCC[C@H]3SC[C@H]4NC(=O)N[C@H]43)NC(=O)C(CCCNC(=N)N)NC(=O)[C@@H](Cc3ccc(O)cc3)NC(=O)[C@@H](Cc3ccc(O)cc3)NC(=O)C(CCCCN)NC(=O)C(Cc3ccc(O)cc3)NC2=O)NC1=O` (stereo partly drawn) [linked biligand] (H-[ξPra][ξY][ξK][dY][dY][ξR][dLys(N3)][PEG1][ξPra][ξY][ξK][dY][dY][ξR][dLys(N3)][PEG5]-{Ethylenediamine-Biotinyl(3aR,4R,6aS)}; triazole 1-7, 9-15) returned an EC50 in assay [6] of 20.8 ± 1.3 nM.

By Kd is commonly meant the constant that tells how readily two partners part at equilibrium. Higher therefore signals weaker binding. By EC50 is commonly meant the concentration giving half of the maximal effect.
